Here are results for one compound from publication PMC9486936 (ACS Chemical Biology, 2022).

One may read the Km as the concentration of substrate that gives half-maximal velocity.

The structures appear in SMILES notation.

In this assay the test system is NocG. The experiment in a line: LC-HRMS, formation of beta-ketoacid […]. The format is biochemical, Nodularia sp. LEGE 06071. The settings on record: read-out: apparent Km; variable hexanoyl-SNAC with octanoyl-SNAC as co-substrate.

Turning to `CCCCCC(=O)SCCNC(C)=O` [hexanoyl-SNAC], the Km was found to be 135 ± 29 µM.
